Measurements from patent publication US10702531B2, “Pyrazolopyrimidine compound as PI3K inhibitor and use thereof” (Shenzhen Bo Li Jian Medicine Co., Ltd., priority 2016, dated 2020).

Columns and labels:
[1] = target: T1, PI3Kδ kinase (p110δ/p85α) (Homo sapiens, UniProt O00329); test: Activity of PI3Kδ kinase by ADP-Glo method; assay type: biochemical; conditions: 17 nM kinase, 50 μM PIP2, 25 μM ATP
T1 construct: purchased Millipore 14-604-K
Method: Activity of PI3Kδ kinase was tested by ADP-Glo method. ADP-Glo was obtained from Promega (#V9101). p110δ/p85α was obtained from Millipore (#14-604-K). The IC50 of each of the compounds was evaluated by testing the compound at 10 concentrations. The starting concentration was 1 μM, and then a 3-fold serial dilution was performed. Buffer solutions for the testing were 50 mM HEPES pH 7.5, 3 mM MgCl2, 1 mM EGTA, 100 mM NaCl, 0.03% CHAPS, and 2 mM DTT. The final concentration of the PI3Kδ kinase was 17 nM; the final concentration of PIP2 was 50 μM; and the final concentration of ATP was 25 μM.
1. Preparation of 10 μL of kinase reaction solution: 2.5 μL of test compound solution, 2.5 μL of kinase solution, and 5 μL of substrate solution were added to each well of a 384-well plate (Corning #4512).
2. The 384-well plate was covered and incubated at room temperature for 60 minutes.
3. 5 μL of reaction solution was transferred from each well to the wells of a new 384-well plate.
4. 5 μL of ADP-Glo reagent was added to the wells of the 384-well plate to terminate the reaction.
5. The 384-well plate was shaken gently on a shaking machine. 6. 10 μL of kinase detection reagent was added to each of the wells, followed by shaking for 1 minute and allowing to standing at room temperature for 30 minutes.
8. The luminescence values of the sample were read using Synegy. 9. Data were processed using Excel and was curve-fitted using XLFit software to obtain the IC50 value of each of the compounds (Table 1).

lymphoma cell SU-DHL-6 = test: CellTiter-Glo inhibition of proliferation of lymphoma cell SU-DHL-6; assay type: cell-based; conditions: Homo sapiens, 72 hours
Method: CellTiter-Glo testing method was used to test the inhibition of the proliferation of lymphoma cell SU-DHL-6 (ATCC, Catalog number: CRL-2959) by the compounds. The cell culture solution used in the test was RPMI1640 (Invitrogen, Catalog number: 11875-093). 10% fetal calf serum (Invitrogen, Catalog number: 10099-141) was used in the test.
100 μL of culture solution containing 15000 cells was distributed to wells of a 96-well plate (Corning #3903). The plate was placed in a carbon dioxide incubator overnight. 0.5 μL of the compound (which was prepared using DMSO to have eight continuous concentration gradients) to be tested was added to each of the wells the next day. Each concentration was set with two replicates, and a well without cell (blank control) and a DMSO-well (solvent control). After dosing, the cells were cultured at 37° C. in 5% CO2 atmosphere for 72 hours. At last, 100 μL of CellTiter-Glo agent (Promega, Catalog number: G7571) was added to each of the wells. Luminescence signal was detected using Flex Station3 (Molecular Devices), and the IC50 value of each of the compounds inhibiting cell proliferation was calculated using XLfit software (Table 1).

T1 sequence (O00329 whole entry): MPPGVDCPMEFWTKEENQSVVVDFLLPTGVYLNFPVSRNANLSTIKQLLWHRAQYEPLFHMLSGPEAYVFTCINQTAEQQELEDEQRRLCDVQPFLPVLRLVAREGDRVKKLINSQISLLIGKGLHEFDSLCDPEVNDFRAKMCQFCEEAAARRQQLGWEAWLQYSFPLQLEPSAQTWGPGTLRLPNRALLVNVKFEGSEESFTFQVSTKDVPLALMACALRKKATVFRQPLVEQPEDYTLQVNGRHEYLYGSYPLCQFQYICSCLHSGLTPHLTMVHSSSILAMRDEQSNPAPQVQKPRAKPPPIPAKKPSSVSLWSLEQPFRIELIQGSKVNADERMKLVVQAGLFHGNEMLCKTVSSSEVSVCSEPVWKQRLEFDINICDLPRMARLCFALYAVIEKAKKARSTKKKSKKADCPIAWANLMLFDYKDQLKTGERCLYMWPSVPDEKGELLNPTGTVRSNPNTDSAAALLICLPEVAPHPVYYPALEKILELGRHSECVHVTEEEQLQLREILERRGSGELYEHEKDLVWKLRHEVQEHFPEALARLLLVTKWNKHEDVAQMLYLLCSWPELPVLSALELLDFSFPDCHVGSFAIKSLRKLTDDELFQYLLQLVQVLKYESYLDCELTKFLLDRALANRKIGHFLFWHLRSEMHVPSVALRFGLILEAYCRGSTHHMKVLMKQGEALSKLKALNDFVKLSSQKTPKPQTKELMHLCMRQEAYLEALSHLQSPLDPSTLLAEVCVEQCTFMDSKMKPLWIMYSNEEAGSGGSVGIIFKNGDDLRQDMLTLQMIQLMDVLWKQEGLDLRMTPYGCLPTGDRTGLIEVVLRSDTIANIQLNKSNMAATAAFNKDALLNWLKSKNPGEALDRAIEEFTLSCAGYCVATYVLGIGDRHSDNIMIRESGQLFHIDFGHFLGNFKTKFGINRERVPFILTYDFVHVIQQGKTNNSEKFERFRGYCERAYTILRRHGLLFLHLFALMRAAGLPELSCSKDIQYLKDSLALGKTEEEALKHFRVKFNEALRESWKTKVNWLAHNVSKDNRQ
T1 sequence (P27986 whole entry partner): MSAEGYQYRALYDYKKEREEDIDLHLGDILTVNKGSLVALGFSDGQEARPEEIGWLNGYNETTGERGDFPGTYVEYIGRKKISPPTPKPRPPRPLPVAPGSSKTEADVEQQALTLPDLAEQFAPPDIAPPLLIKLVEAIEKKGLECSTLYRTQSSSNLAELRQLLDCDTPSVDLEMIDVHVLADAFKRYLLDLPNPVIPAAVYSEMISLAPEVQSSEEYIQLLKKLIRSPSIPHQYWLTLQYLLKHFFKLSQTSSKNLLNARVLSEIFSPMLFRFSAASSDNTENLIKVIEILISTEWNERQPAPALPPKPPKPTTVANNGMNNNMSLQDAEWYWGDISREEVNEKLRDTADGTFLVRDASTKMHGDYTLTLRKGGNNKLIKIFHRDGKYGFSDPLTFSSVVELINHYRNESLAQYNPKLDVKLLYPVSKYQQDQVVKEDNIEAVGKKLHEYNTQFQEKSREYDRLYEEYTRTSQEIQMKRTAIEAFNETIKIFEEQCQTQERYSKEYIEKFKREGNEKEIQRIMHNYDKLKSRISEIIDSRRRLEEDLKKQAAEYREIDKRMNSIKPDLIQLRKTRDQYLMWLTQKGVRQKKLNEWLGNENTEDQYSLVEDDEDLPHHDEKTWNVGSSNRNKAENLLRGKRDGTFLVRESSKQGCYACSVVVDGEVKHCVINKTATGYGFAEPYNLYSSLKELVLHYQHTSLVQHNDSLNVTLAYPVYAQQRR

Question: What does the source list for `C[C@H](Nc1ncnc(N)c1C#N)c1cn2ncc(Cl)c2nc1-c1ccccc1` [Example 1, (S)-4-amino-6-(1-(3-chloro-5-phenylpyrazolo[1,5-a]pyrimidin-6-yl)ethylamino) pyrimidin-5-carbonitrile]?
Answer: IC50 [1]: < 0.02 µM; IC50 (lymphoma cell SU-DHL-6): 0.02 to 0.1 µM

Question: What does the source list for `C[C@H](Nc1nc(N)nc(N)c1C#N)c1cn2ncc(Cl)c2nc1-c1ccccc1` [Example 2, (S)-2,4-diamino-6-(1-(3-chloro-5-phenylpyrazolo[1,5-a]pyrimidin-6-yl)ethylamino)pyrimidin-5-carbonitrile]?
Answer: IC50 [1]: < 0.02 µM; IC50 (lymphoma cell SU-DHL-6): < 0.02 µM

Question: How did the IC50 [1] turn out when `C[C@H](Nc1nc(N)nc(N)c1C#N)c1cn2ncc(Cl)c2nc1-c1cccc(F)c1` [Example 3, (S)-2,4-diamino-6-(1-(3-chloro-5-(3-fluorophenyl)pyrazolo[1,5-a]pyrimidin-6-yl)ethylamino)pyrimidin-5-carbonitrile] was run?
Answer: The IC50 was < 0.02 µM.

Question: What about the IC50 (lymphoma cell SU-DHL-6) of the same compound?
Answer: Its IC50 is < 0.02 µM.

Question: What does the source list for `C[C@H](Nc1ncnc(N)c1C#N)c1cn2ncc(Cl)c2nc1-c1cccc(F)c1` [Example 4, (S)-4-amino-6-(1-(3-chloro-5-(3-fluorophenyl)pyrazolo[1,5-a]pyrimidin-6-yl)ethylamino)pyrimidin-5-carbonitrile]?
Answer: IC50 [1]: < 0.02 µM; IC50 (lymphoma cell SU-DHL-6): 0.02 to 0.1 µM

Question: Which IC50 [1] does the source give for `Cc1nc(N)nc(N[C@@H](C)c2cn3ncc(Cl)c3nc2-c2ccccc2)c1C#N` [Example 5, (S)-2-amino-4-((1-(3-chloro-5-phenylpyrazolo[1,5-a]pyrimidin-6-yl)ethyl)amino)-6-methylpyrimidin-5-carbonitrile] here?
Answer: Its IC50 is < 0.02 µM.

Question: And the IC50 (lymphoma cell SU-DHL-6)?
Answer: The IC50 was 0.02 to 0.1 µM.
